Values quoted from earlier work in patent US11779012B2, “Compositions and methods for preserving red blood cells and platelets” (RythRx Therapeutics, LLC, priority 2013, dated 2023).

Experiments:
[1] = target: pleckstrin homology (PH) domain of Akt (Homo sapiens, UniProt P31749); conditions: binding to PH domain of Akt
[2] = after intravenous administration

pleckstrin homology (PH) domain of Akt, sequence (P31749 5-108 limits assumed): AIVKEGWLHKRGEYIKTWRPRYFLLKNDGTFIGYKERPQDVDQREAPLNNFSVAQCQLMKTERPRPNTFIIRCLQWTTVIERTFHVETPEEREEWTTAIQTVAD

CN1N=C(N)c2cn([C@@H]3O[C@H](COP(=O)(O)O)[C@@H](O)[C@H]3O)c3ncnc1c23 [TCNP, ((2R,3S,4R,5R)-5-(3-amino-5-methyl-1,4,5,6,8-pentaazaacenaphthylen-1(5H)-yl)-3,4-dihydroxytetrahydrofuran-2-yl)methyl dihydrogen phosphate]
Kd [1]: 690 nM | half-life (retention of TCNP in human RBC) [2]: 89 h
